Results from PubChem BioAssay (NCI).
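The compound was tested at five concentrations on cells cultured in 96-well plates, with a 48-hour exposure period. TGI: concentration producing complete growth inhibition.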

Columns and labels:
Experiment in all cases: NCI tumour cell line growth inhibition, 48 h
[1] = system: HCC-2998 colon
[2] = system: SF-268 CNS
[3] = system: SN12C renal
[4] = system: SK-MEL-5 melanoma
[5] = system: UO-31 renal
[6] = system: SK-MEL-28 melanoma
[7] = system: M14 melanoma
[8] = system: M19-MEL melanoma
[9] = system: SF-295 CNS
[10] = system: K-562 leukemia
[11] = system: KM20L2 colon
[12] = system: COLO 205 colon
[13] = system: HOP-18 NSCLC
[14] = system: KM12 colon
[15] = system: SNB-78 CNS
[16] = system: SF-539 CNS
[17] = system: DMS 114 small cell lung
[18] = system: A498 renal
[19] = system: ACHN renal
[20] = system: MALME-3M melanoma
[21] = system: CCRF-CEM leukemia
[22] = system: NCI-H522 lung
[23] = system: SNB-75 CNS
[24] = system: NCI-H460 lung
[25] = system: NCI-H226 lung
[26] = system: XF 498 CNS
[27] = system: HOP-92 NSCLC
[28] = system: DLD-1 colon
[29] = system: NCI-H23 lung
[30] = system: HL-60(TB) leukemia
[31] = system: A549 NSCLC
[32] = system: OVCAR-8 ovarian
[33] = system: HCT-116 colon
[34] = system: SW-620 colon
[35] = system: RXF 393 renal
[36] = system: OVCAR-5 ovarian
[37] = system: U251 CNS
[38] = system: OVCAR-4 ovarian
[39] = system: RPMI-8226 leukemia
[40] = system: 786-0 renal
[41] = system: TK-10 renal
[42] = system: OVCAR-3 ovarian
[43] = system: SR leukemia
[44] = system: UACC-257 melanoma
[45] = system: DMS 273 small cell lung
[46] = system: CAKI-1 renal
[47] = system: IGROV1 ovarian
[48] = system: SK-OV-3 ovarian
[49] = system: SNB-19 CNS
[50] = system: SK-MEL-2 melanoma
[51] = system: EKVX NSCLC
[52] = system: UACC-62 melanoma
[53] = system: HT29 colon
[54] = system: HCT-15 colon
[55] = system: MOLT-4 leukemia
[56] = system: LXFL 529 NSCLC
[57] = system: HOP-62 NSCLC
[58] = system: RXF-631 renal
[59] = system: LOX IMVI melanoma

Measured: TGI

Cc1cccc(C)c1NC(=O)CCC(=O)CC(=O)C(C)C
not listed: [58] | [59]
> 100 µM: all other assays above

CCOC(=O)C1C(=O)C(C(=O)OCC)C(c2ccccc2)N(C)C1c1ccccc1 (configuration not stated)
not listed: [1] | [13] | [26] | [39]
> 100 µM: all other assays above
